From PubChem BioAssay (NCI)
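GI50 = concentration required for 50% inhibition of growth. Definition used: TGI = concentration required for complete inhibition of growth.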

Assays:
Assay in all cases: NCI anticancer screen, dose series, 384-well format
OVCAR-3 ovarian = tested on: OVCAR-3 ovarian
COLO 205 colon = tested on: COLO 205 colon
OVCAR-4 ovarian = tested on: OVCAR-4 ovarian
HCT-15 colon = tested on: HCT-15 colon
TK-10 renal = tested on: TK-10 renal
DU-145 prostate = tested on: DU-145 prostate
UO-31 renal = tested on: UO-31 renal
A498 renal = tested on: A498 renal
SF-295 CNS = tested on: SF-295 CNS
RXF 393 renal = tested on: RXF 393 renal
U251 glioblastoma = tested on: U251 glioblastoma
HOP-92 NSCLC = tested on: HOP-92 NSCLC
RPMI-8226 leukemia = tested on: RPMI-8226 leukemia
SN12C renal = tested on: SN12C renal
MALME-3M melanoma = tested on: MALME-3M melanoma
OVCAR-8 ovarian = tested on: OVCAR-8 ovarian
NCI/ADR-RES ovarian = tested on: NCI/ADR-RES ovarian
HOP-62 NSCLC = tested on: HOP-62 NSCLC
SK-MEL-5 melanoma = tested on: SK-MEL-5 melanoma
UACC-62 melanoma = tested on: UACC-62 melanoma
T-47D breast = tested on: T-47D breast
HL-60(TB) leukemia = tested on: HL-60(TB) leukemia
SK-MEL-28 melanoma = tested on: SK-MEL-28 melanoma
KM12 colon = tested on: KM12 colon
NCI-H226 lung = tested on: NCI-H226 lung
NCI-H23 lung = tested on: NCI-H23 lung
K-562 leukemia = tested on: K-562 leukemia
CAKI-1 renal = tested on: CAKI-1 renal
SK-OV-3 ovarian = tested on: SK-OV-3 ovarian
LOX IMVI melanoma = tested on: LOX IMVI melanoma
MCF7 breast = tested on: MCF7 breast
SNB-19 CNS = tested on: SNB-19 CNS
A549 NSCLC = tested on: A549 NSCLC
MDA-MB-435 melanoma = tested on: MDA-MB-435 melanoma
PC-3 prostate = tested on: PC-3 prostate
SF-268 CNS = tested on: SF-268 CNS
SR leukemia = tested on: SR leukemia
BT-549 breast = tested on: BT-549 breast
MDA-MB-468 breast = tested on: MDA-MB-468 breast
CCRF-CEM leukemia = tested on: CCRF-CEM leukemia
MOLT-4 leukemia = tested on: MOLT-4 leukemia
SK-MEL-2 melanoma = tested on: SK-MEL-2 melanoma
IGROV1 ovarian = tested on: IGROV1 ovarian
OVCAR-5 ovarian = tested on: OVCAR-5 ovarian
M14 melanoma = tested on: M14 melanoma
SF-539 CNS = tested on: SF-539 CNS
ACHN renal = tested on: ACHN renal
UACC-257 melanoma = tested on: UACC-257 melanoma
MDA-MB-231 breast = tested on: MDA-MB-231 breast
SW-620 colon = tested on: SW-620 colon
786-0 renal = tested on: 786-0 renal
NCI-H522 lung = tested on: NCI-H522 lung
HCC-2998 colon = tested on: HCC-2998 colon
NCI-H322M lung = tested on: NCI-H322M lung
HT29 colon = tested on: HT29 colon
HCT-116 colon = tested on: HCT-116 colon
NCI-H460 NSCLC = tested on: NCI-H460 NSCLC

C=C(F)C(=O)N1CCN(c2nc(OC[C@@H]3CCCN3C)nc3c2CCN(c2cccc4cccc(Cl)c24)C3)C[C@@H]1CC#N
GI50 (OVCAR-3 ovarian): 0.657 µM
TGI (OVCAR-3 ovarian): 1.88 µM
GI50 (COLO 205 colon): 0.564 µM
TGI (COLO 205 colon): 1.74 µM
GI50 (OVCAR-4 ovarian): 0.853 µM
TGI (OVCAR-4 ovarian): 2.12 µM
GI50 (HCT-15 colon): 0.568 µM
TGI (HCT-15 colon): 1.71 µM
GI50 (TK-10 renal): 0.925 µM
TGI (TK-10 renal): 2.16 µM
GI50 (DU-145 prostate): 1.21 µM
TGI (DU-145 prostate): 2.48 µM
GI50 (UO-31 renal): 1.15 µM
TGI (UO-31 renal): 2.37 µM
GI50 (A498 renal): 0.471 µM
TGI (A498 renal): 1.59 µM
GI50 (SF-295 CNS): 1.48 µM
TGI (SF-295 CNS): 2.81 µM
GI50 (RXF 393 renal): 0.379 µM
TGI (RXF 393 renal): 1.56 µM
GI50 (U251 glioblastoma): 0.285 µM
TGI (U251 glioblastoma): 0.994 µM
GI50 (HOP-92 NSCLC): 0.341 µM
TGI (HOP-92 NSCLC): 0.931 µM
GI50 (RPMI-8226 leukemia): 0.165 µM
TGI (RPMI-8226 leukemia): 0.491 µM
GI50 (SN12C renal): 1.2 µM
TGI (SN12C renal): 2.44 µM
GI50 (MALME-3M melanoma): 1.33 µM
TGI (MALME-3M melanoma): 2.61 µM
GI50 (OVCAR-8 ovarian): 0.405 µM
TGI (OVCAR-8 ovarian): 1.36 µM
GI50 (NCI/ADR-RES ovarian): 0.411 µM
TGI (NCI/ADR-RES ovarian): 1.44 µM
GI50 (HOP-62 NSCLC): < 0.01 µM
TGI (HOP-62 NSCLC): 1.39 µM
GI50 (SK-MEL-5 melanoma): 0.564 µM
TGI (SK-MEL-5 melanoma): 1.81 µM
GI50 (UACC-62 melanoma): 0.692 µM
TGI (UACC-62 melanoma): 1.91 µM
GI50 (T-47D breast): 0.43 µM
TGI (T-47D breast): 1.9 µM
GI50 (HL-60(TB) leukemia): 0.637 µM
TGI (HL-60(TB) leukemia): 1.82 µM
GI50 (SK-MEL-28 melanoma): 1.13 µM
TGI (SK-MEL-28 melanoma): 2.36 µM
GI50 (KM12 colon): 0.561 µM
TGI (KM12 colon): 1.75 µM
GI50 (NCI-H226 lung): 0.915 µM
TGI (NCI-H226 lung): 2.14 µM
GI50 (NCI-H23 lung): < 0.01 µM
GI50 (K-562 leukemia): 0.253 µM
TGI (K-562 leukemia): 1.32 µM
GI50 (CAKI-1 renal): 0.499 µM
TGI (CAKI-1 renal): 1.69 µM
GI50 (SK-OV-3 ovarian): 1.07 µM
TGI (SK-OV-3 ovarian): 2.28 µM
GI50 (LOX IMVI melanoma): 1.1 µM
TGI (LOX IMVI melanoma): 2.31 µM
GI50 (MCF7 breast): 1.19 µM
TGI (MCF7 breast): 2.43 µM
GI50 (SNB-19 CNS): 0.745 µM
TGI (SNB-19 CNS): 1.96 µM
GI50 (A549 NSCLC): 0.561 µM
TGI (A549 NSCLC): 1.84 µM
GI50 (MDA-MB-435 melanoma): 1.27 µM
TGI (MDA-MB-435 melanoma): 2.55 µM
GI50 (PC-3 prostate): 0.723 µM
TGI (PC-3 prostate): 2.01 µM
GI50 (SF-268 CNS): 0.542 µM
TGI (SF-268 CNS): 1.66 µM
GI50 (SR leukemia): 0.134 µM
TGI (SR leukemia): 0.512 µM
GI50 (BT-549 breast): 1.21 µM
TGI (BT-549 breast): 2.45 µM
GI50 (MDA-MB-468 breast): 0.275 µM
TGI (MDA-MB-468 breast): 1.11 µM
GI50 (CCRF-CEM leukemia): 0.351 µM
TGI (CCRF-CEM leukemia): 1.34 µM
GI50 (MOLT-4 leukemia): 0.182 µM
TGI (MOLT-4 leukemia): 0.384 µM
GI50 (SK-MEL-2 melanoma): 0.484 µM
TGI (SK-MEL-2 melanoma): 1.63 µM
GI50 (IGROV1 ovarian): 1.29 µM
TGI (IGROV1 ovarian): 2.61 µM
GI50 (OVCAR-5 ovarian): 0.386 µM
TGI (OVCAR-5 ovarian): 1.19 µM
GI50 (M14 melanoma): 0.692 µM
TGI (M14 melanoma): 1.92 µM
GI50 (SF-539 CNS): 0.472 µM
TGI (SF-539 CNS): 1.52 µM
GI50 (ACHN renal): 0.992 µM
TGI (ACHN renal): 2.16 µM
GI50 (UACC-257 melanoma): 0.749 µM
TGI (UACC-257 melanoma): 2.02 µM
GI50 (MDA-MB-231 breast): 0.417 µM
TGI (MDA-MB-231 breast): 1.42 µM
GI50 (SW-620 colon): 1.12 µM
TGI (SW-620 colon): 2.35 µM
GI50 ([…]-0 renal): 0.509 µM
TGI (786-0 renal): 1.78 µM
GI50 (NCI-H522 lung): 0.255 µM
TGI (NCI-H522 lung): 0.861 µM
GI50 (HCC-2998 colon): 1.08 µM
TGI (HCC-2998 colon): 2.28 µM
GI50 (NCI-H322M lung): 1.27 µM
TGI (NCI-H322M lung): 2.59 µM
GI50 (HT29 colon): 0.652 µM
TGI (HT29 colon): 1.93 µM
GI50 (HCT-116 colon): 0.326 µM
TGI (HCT-116 colon): 1.35 µM
GI50 (NCI-H460 NSCLC): 0.414 µM
TGI (NCI-H460 NSCLC): 1.39 µM
